# What was measured:
# Experiment in all cases: relative viability (nuclei count vs DMSO), 5 days (fraction); higher = more cells survive
# [1] = system: HCC-44
# Summary of the method: (§1)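 Lung cancer cell lines in 1536-well plates were dosed by pin tool the day after seeding, either with one drug alone or with a fixed anchor-drug dose plus five library-drug doses (not always all listed) in √10 steps. After 5 days, cells were fixed and their nuclei stained in one step (final 0.05% Triton X-100, 1% formaldehyde, 1 ug/ml Hoechst), then counted on 4× images. Relative viability is the nuclei count in treated wells divided by that in vehicle wells. Values are medians of duplicate plates.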
# [2] = system: NCI-H358
# Summary of the method: as §1
# [3] = system: HARA
# Summary of the method: as §1
# [4] = system: NCI-H2405
# Summary of the method: as §1
# [5] = system: NCI-H727
# Summary of the method: as §1
# [6] = system: NCI-H1975
# Summary of the method: as §1
# [7] = system: SK-LU-1
# Summary of the method: as §1
# [8] = system: NCI-H2023
# Summary of the method: as §1
# [9] = system: NCI-H661
# Summary of the method: as §1
# [10] = system: NCI-H1792
# Summary of the method: as §1
# [11] = system: HCC-366
# Summary of the method: as §1
# [12] = system: NCI-H1437
# Summary of the method: as §1
# [13] = system: NCI-H2085
# Summary of the method: as §1
# [14] = system: COR-L 105
# Summary of the method: as §1
# [15] = system: NCI-H1944
# Summary of the method: as §1
# [16] = system: UMC-11
# Summary of the method: as §1
# [17] = system: HCC-827
# Summary of the method: as §1
# [18] = system: HCC-78
# Summary of the method: as §1
# [19] = system: HCC-15
# Summary of the method: as §1
# [20] = system: COR-L23
# Summary of the method: as §1
# [21] = system: NCI-H1395
# Summary of the method: as §1
# [22] = system: EPLC-272H
# Summary of the method: as §1
# [23] = system: LCLC-103H
# Summary of the method: as §1
compound,measurement,setting,value
O=C(O)CCCCC(CCSCc1ccccc1)SCc1ccccc1 (stereo not given) [CPI-613] + CC(=O)c1c(C)c2cnc(Nc3ccc(N4CCNCC4)cn3)nc2n(C2CCCC2)c1=O [Palbociclib] (partner 0.5 µM),relative viability,[1]; first compound 5 µM,0.959
same,relative viability,[1]; first compound 15.81 µM,0.954
same,relative viability,[1]; first compound 50 µM,1.04
same,relative viability,[1]; first compound 158.11 µM,0.6
same,relative viability,[1]; first compound 500 µM,0.606
same,relative viability,[2]; first compound 5 µM,0.114
same,relative viability,[2]; first compound 15.81 µM,0.134
same,relative viability,[2]; first compound 50 µM,0.154
same,relative viability,[2]; first compound 158.11 µM,0.0757
same,relative viability,[2]; first compound 500 µM,0.0449
same,relative viability,[3]; first compound 5 µM,0.214
same,relative viability,[3]; first compound 15.81 µM,0.26
same,relative viability,[3]; first compound 50 µM,0.309
same,relative viability,[3]; first compound 158.11 µM,0.198
same,relative viability,[3]; first compound 500 µM,0.105
same,relative viability,[4]; first compound 5 µM,0.558
same,relative viability,[4]; first compound 15.81 µM,0.499
same,relative viability,[4]; first compound 50 µM,0.453
same,relative viability,[4]; first compound 158.11 µM,0.167
same,relative viability,[4]; first compound 500 µM,0.316
same,relative viability,[5]; first compound 5 µM,0.673
same,relative viability,[5]; first compound 15.81 µM,0.614
same,relative viability,[5]; first compound 50 µM,0.566
same,relative viability,[5]; first compound 158.11 µM,0.655
same,relative viability,[5]; first compound 500 µM,0.634
same,relative viability,[6]; first compound 5 µM,0.638
same,relative viability,[6]; first compound 15.81 µM,0.645
same,relative viability,[6]; first compound 50 µM,0.388
same,relative viability,[6]; first compound 158.11 µM,0.562
same,relative viability,[6]; first compound 500 µM,0.0655
same,relative viability,[7]; first compound 5 µM,0.422
same,relative viability,[7]; first compound 15.81 µM,0.392
same,relative viability,[7]; first compound 50 µM,0.276
same,relative viability,[7]; first compound 158.11 µM,0.32
same,relative viability,[7]; first compound 500 µM,0.202
same,relative viability,[8]; first compound 5 µM,0.335
same,relative viability,[8]; first compound 15.81 µM,0.323
same,relative viability,[8]; first compound 50 µM,0.35
same,relative viability,[8]; first compound 158.11 µM,0.0317
same,relative viability,[8]; first compound 500 µM,0.0063
same,relative viability,[9]; first compound 5 µM,0.404
same,relative viability,[9]; first compound 15.81 µM,0.374
same,relative viability,[9]; first compound 50 µM,0.387
same,relative viability,[9]; first compound 158.11 µM,0.24
same,relative viability,[9]; first compound 500 µM,0.132
same,relative viability,[10]; first compound 5 µM,0.627
same,relative viability,[10]; first compound 15.81 µM,0.607
same,relative viability,[10]; first compound 50 µM,0.654
same,relative viability,[10]; first compound 158.11 µM,0.632
same,relative viability,[10]; first compound 500 µM,0.666
same,relative viability,[11]; first compound 5 µM,0.354
same,relative viability,[11]; first compound 15.81 µM,0.322
same,relative viability,[11]; first compound 50 µM,0.336
same,relative viability,[11]; first compound 158.11 µM,0.0258
same,relative viability,[11]; first compound 500 µM,0.006
same,relative viability,[12]; first compound 5 µM,0.284
same,relative viability,[12]; first compound 15.81 µM,0.281
same,relative viability,[12]; first compound 50 µM,0.292
same,relative viability,[12]; first compound 158.11 µM,0.0875
same,relative viability,[12]; first compound 500 µM,0.026
same,relative viability,[13]; first compound 5 µM,0.447
same,relative viability,[13]; first compound 15.81 µM,0.47
same,relative viability,[13]; first compound 50 µM,0.456
same,relative viability,[13]; first compound 158.11 µM,0.391
same,relative viability,[13]; first compound 500 µM,0.191
same,relative viability,[14]; first compound 5 µM,0.423
same,relative viability,[14]; first compound 15.81 µM,0.441
same,relative viability,[14]; first compound 50 µM,0.379
same,relative viability,[14]; first compound 158.11 µM,0.294
same,relative viability,[14]; first compound 500 µM,0.26
same,relative viability,[15]; first compound 5 µM,0.331
same,relative viability,[15]; first compound 15.81 µM,0.312
same,relative viability,[15]; first compound 50 µM,0.335
same,relative viability,[15]; first compound 158.11 µM,0.259
same,relative viability,[15]; first compound 500 µM,0.26
same,relative viability,[16]; first compound 5 µM,0.346
same,relative viability,[16]; first compound 15.81 µM,0.354
same,relative viability,[16]; first compound 50 µM,0.323
same,relative viability,[16]; first compound 158.11 µM,0.23
same,relative viability,[16]; first compound 500 µM,0.216
same,relative viability,[17]; first compound 5 µM,0.465
same,relative viability,[17]; first compound 15.81 µM,0.491
same,relative viability,[17]; first compound 50 µM,0.464
same,relative viability,[17]; first compound 158.11 µM,0.496
same,relative viability,[17]; first compound 500 µM,0.417
same,relative viability,[18]; first compound 5 µM,0.462
same,relative viability,[18]; first compound 15.81 µM,0.527
same,relative viability,[18]; first compound 50 µM,0.473
same,relative viability,[18]; first compound 158.11 µM,0.447
same,relative viability,[18]; first compound 500 µM,0.427
same,relative viability,[19]; first compound 5 µM,0.649
same,relative viability,[19]; first compound 15.81 µM,0.694
same,relative viability,[19]; first compound 50 µM,0.681
same,relative viability,[19]; first compound 158.11 µM,0.332
same,relative viability,[19]; first compound 500 µM,0.126
same,relative viability,[20]; first compound 5 µM,0.285
same,relative viability,[20]; first compound 15.81 µM,0.321
same,relative viability,[20]; first compound 50 µM,0.324
same,relative viability,[20]; first compound 158.11 µM,0.11
same,relative viability,[20]; first compound 500 µM,0.0343
same,relative viability,[21]; first compound 5 µM,0.619
same,relative viability,[21]; first compound 15.81 µM,0.641
same,relative viability,[21]; first compound 50 µM,0.601
same,relative viability,[21]; first compound 158.11 µM,0.57
same,relative viability,[21]; first compound 500 µM,0.486
same,relative viability,[22]; first compound 5 µM,0.348
same,relative viability,[22]; first compound 15.81 µM,0.315
same,relative viability,[22]; first compound 50 µM,0.306
same,relative viability,[22]; first compound 158.11 µM,0.316
same,relative viability,[22]; first compound 500 µM,0.259
same,relative viability,[23]; first compound 5 µM,0.464
same,relative viability,[23]; first compound 15.81 µM,0.456
same,relative viability,[23]; first compound 50 µM,0.455
same,relative viability,[23]; first compound 158.11 µM,0.343
same,relative viability,[23]; first compound 500 µM,0.213

# Source: the supplement of paper PMC10307832
